Results from publication PMC12007089, “Applying Isothermal Titration Calorimetry and Saturation Transfer Difference-NMR to Study the Mode of Interaction of Flavan-3-ols with α-Amylase to Understand Their Impact on Starch Hydrolysis” (Journal of Agricultural and Food Chemistry, 2025).
Like-named read-outs stand apart in the source and are kept apart here.

Experiments:
[1] = Stability of ligands in 0.1 M PBS (UV/Vis concentration); type: physicochemical; details: for conc.: storage 3,5 h (EC), 22 h (CAT), 15 h (PC B1, PC B2, PC C1); for difference rt and 277 K: same storage times
Experimental: Flavan-3-ols were dissolved in 0.1 M phosphate buffer containing 0.04 M NaCl at pH 7. Final concentrations were determined by UV/Vis spectroscopy at 298 K (quartz glass cuvette, light path 10 mm, Hellma Analytics, SPECTROstar Nano, BMG Labtech) using the following absorption coefficients ε at 280 nm: CAT, 3340 [L/mol cm]; EC, 3470 [L/mol cm]; PC B1, 6800 [L/mol cm]; […] PC C1, 10,000 [L/mol cm] according to Kaeswurm et al.[33] All ligand solutions were stored at 253 K. The data analysis for the interaction studies was conducted using software NanoAnalyze, with manual integration of the peaks. To correct the data for noninteraction-related heats, the mean heat released during the final three injections was subtracted as a constant blank. This procedure is an effective estimation strategy that minimizes errors during the fitting process, provided that the protein is fully saturated.[35] The data were fitted using the “independent” model. To prevent overparametrization, n was set to 1, while Ka and ΔH were maintained as variables, as recommended for low-affinity binding.[35],[36] The stability of the ligand at room temperature was ensured by monitoring the concentrations prior to and following the experiment (S5).

[2] = biological target: T1, porcine pancreatic α-amylase (Sus scrofa, UniProt P00690); assay: Saturation transfer difference (STD)-NMR interaction study; type: binding; details: for saturation protein–ligand aliph., corrected by a blank / saturation protein–ligand arom., corrected by a blank / saturation aliph. / saturation arom.: 10 μM α-amylase, 1 mM ligand, 298 K; for saturation protein–ligand arom., corrected by a blank: catechol ring protons; for saturation aliph. / saturation arom.: head prints 'blank', values are protein–ligand not corrected by a blank; for ratio aliph.: share of aliphatic proton saturation; for ratio arom.: share of aromatic proton saturation
T1 sequence (P00690 16-511): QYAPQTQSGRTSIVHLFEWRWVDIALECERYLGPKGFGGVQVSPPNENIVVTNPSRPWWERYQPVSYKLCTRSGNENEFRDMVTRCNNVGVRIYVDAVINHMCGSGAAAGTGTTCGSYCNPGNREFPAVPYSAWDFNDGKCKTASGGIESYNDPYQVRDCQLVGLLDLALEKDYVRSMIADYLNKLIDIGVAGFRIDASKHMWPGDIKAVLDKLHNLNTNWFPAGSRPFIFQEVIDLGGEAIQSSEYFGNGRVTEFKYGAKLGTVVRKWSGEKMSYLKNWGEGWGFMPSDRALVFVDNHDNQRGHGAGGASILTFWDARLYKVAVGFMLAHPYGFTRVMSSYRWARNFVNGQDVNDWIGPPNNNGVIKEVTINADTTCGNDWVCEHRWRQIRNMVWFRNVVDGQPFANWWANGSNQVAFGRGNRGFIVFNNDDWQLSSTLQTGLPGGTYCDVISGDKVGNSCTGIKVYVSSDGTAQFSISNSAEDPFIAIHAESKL
Source text: STD-NMR parameters were optimized based on the Bruker standard pulse sequence stddiffgp19.3 using a protein and ligand blank sample. The irradiation frequency (FQ2), saturation time (D20), saturation pulse selectivity (SPW9), and power of the saturation pulse (P42) were varied to achieve maximum selective protein saturation (S2). The best saturation of the α-amylase, with 60%, was obtained with FQ2 = 0.5 ppm, D20 = 3 s, SPW9 = 35 dB, and P42 = 50 ms. The pseudo-2D experiment allows simultaneous acquisition of the on-resonance spectrum (with selective protein saturation) and the off-resonance spectrum (without protein saturation). The subtraction of both FIDs yields the STD-NMR spectrum (S3). The off-resonance spectrum serves as a reference spectrum for the determination of ligand saturation by intensity comparison with the STD-NMR spectrum. The protein blank sample contained 10 μM α-amylase, and the ligand blank was acquired with 1.1 mM flavan-3-ol in 0.1 M phosphate buffer/0.04 M NaCl (D2O/H2O, 90/10, v/v). Interaction studies were performed with 10 μM α-amylase and 1 mM (ligand). The software package TopSpin 3.2 of Bruker BioSpin was used for data acquisition and processing.

[3] = biological target: T1, porcine pancreatic α-amylase; assay: Interaction studies by isothermal titration calorimetry (ITC); type: binding
Experimental: Isothermal titration calorimetry was performed using an Affinity ITC LV with a cell volume of 182 μL (TA Instruments, Eschborn, Germany). Interaction experiments were recorded at 298 K with 0.1 mM rebuffered α-amylase in the sample cell and 4 mM flavan-3-ols in the injection syringe. For each ligand, experiments were performed with 25 injections of 3 μL and a spacing of 200 s between injections. Experiments were carried out in duplicates. Additional measurements were conducted in buffer to ensure that any mixing effects were negligible and that the observed heat development was solely attributed to the interaction studied (S4). In particular, at higher phenolic concentrations, endothermic peaks were observed, arising from the dilution effect.
The data analysis for the interaction studies was conducted using software NanoAnalyze, with manual integration of the peaks. To correct the data for noninteraction-related heats, the mean heat released during the final three injections was subtracted as a constant blank. This procedure is an effective estimation strategy that minimizes errors during the fitting process, provided that the protein is fully saturated.[35] The data were fitted using the “independent” model. To prevent overparametrization, n was set to 1, while Ka and ΔH were maintained as variables, as recommended for low-affinity binding.[35],[36] The stability of the ligand at room temperature was ensured by monitoring the concentrations prior to and following the experiment (S5).

[4] = 0.1 mM α-amylase, 4 mM flavan-3-ol, phosphate buffer, 298 K, n set to 1
[5] = 0.1 mM α-amylase, 4 mM flavan-3-ol, phosphate buffer, 298 K, n set to 1, read-out: Kd
[6] = phosphate buffer, 298 K, n set to 1
[7] = ITC, values as restated in the discussion

Structure (SMILES) | conc. ([1]; 277 K) | conc. ([1]; room temperature (rt)) | difference rt and 277 K [1] | saturation protein–ligand aliph., corrected by a blank [2] | saturation protein–ligand arom., corrected by a blank [2] | saturation aliph. [2] | saturation arom. [2] | ratio aliph. [2] | ratio arom. [2] | Ka [3, 4] | Kd [3, 5] | ΔG [3, 6] | ΔH [3, 6] | ΔS [3, 6] | Ka [3, 7] | Kd ([3]; Ka, 0.1 mM α-amylase, 4 mM flavan-3-ol, phosphate buffer, 298 K, n set to 1) | observation in the STD-NMR sample with α-amylase [2] | PC C1 concentration in solution after precipitation ([2]; after STD experiment, 1 mM PC C1, 10 μM α-amylase) | decrease of PC C1 in solution after precipitation ([2]; integrals of aromatic protons, off-resonance spectrum vs pure ligand blank, 1 mM PC C1, 10 μM α-amylase) | interaction with α-amylase observed by ITC ([3]; 0.1 mM α-amylase, 4 mM ligand, 298 K)
Oc1cc(O)c2c(c1)O[C@H](c1ccc(O)c(O)c1)[C@@H](O)C2 [CAT, (+)-Catechin] | 3,94 ± 0,24 mM | 4,02 ± 0,21 mM | 0,08 mM | 3% | 11% | 5% | 13% | 21 | 79 | 2.1±0.0 10^3 M^-1 | 500 µM | -4.54 ± 0 kcal/mol | -12.7 ± 1.1 kcal/mol | – | – | – | – | – | – | –
Oc1cc(O)c2c(c1)O[C@H](c1ccc(O)c(O)c1)[C@H](O)C2 [EC, (−)-Epicatechin] | 3,99 ± 0,25 mM | 4,23 ± 0,24 mM | 0,24 mM | 6% | 21% | 6% | 21% | 21 | 79 | – | 300 µM | -4.78 ± 0.048 kcal/mol | -17.2 ± 1.67 kcal/mol | -173±24 J/mol·K | – | 263 µM | – | – | – | –
Oc1cc(O)c2c(c1)O[C@H](c1ccc(O)c(O)c1)[C@H](O)[C@H]2c1c(O)cc(O)c2c1O[C@H](c1ccc(O)c(O)c1)[C@H](O)[C@H]2c1c(O)cc(O)c2c1O[C@H](c1ccc(O)c(O)c1)[C@H](O)C2 [PC C1, procyanidin C1] | 4,60 ± 0,42 mM | 4,29 ± 0,30 mM | 0,31 mM | 7% | 11% | 7% | 11% | 39 | 61 | – | – | – | – | – | – | – | visible precipitation | 0.35 mM | roughly 65% | no observable interaction

Second part, led by results:

conc. ([1]; 277 K) | conc. ([1]; room temperature (rt)) | difference rt and 277 K [1] | saturation protein–ligand aliph., corrected by a blank [2] | saturation protein–ligand arom., corrected by a blank [2] | saturation aliph. [2] | saturation arom. [2] | ratio aliph. [2] | ratio arom. [2] | Ka [3, 4] | Kd [3, 5] | ΔG [3, 6] | ΔH [3, 6] | ΔS [3, 6] | Ka [3, 7] | Structure (SMILES) | Kd ([3]; Ka, 0.1 mM α-amylase, 4 mM flavan-3-ol, phosphate buffer, 298 K, n set to 1) | observation in the STD-NMR sample with α-amylase [2] | PC C1 concentration in solution after precipitation ([2]; after STD experiment, 1 mM PC C1, 10 μM α-amylase) | decrease of PC C1 in solution after precipitation ([2]; integrals of aromatic protons, off-resonance spectrum vs pure ligand blank, 1 mM PC C1, 10 μM α-amylase) | interaction with α-amylase observed by ITC ([3]; 0.1 mM α-amylase, 4 mM ligand, 298 K)
4,28 ± 0,20 mM | 4,10 ± 0,29 mM | 0,18 mM | 11% | 14% | 11% | 14% | 44 | 56 | 1.1±0.1 10^3 M^-1 | 900 µM | -4.06 ± 0.024 kcal/mol | -5.26 ± 0.359 kcal/mol | -16±5 J/mol·K | 1100 M^–1 | Oc1cc(O)c2c(c1)O[C@H](c1ccc(O)c(O)c1)[C@H](O)[C@H]2c1c(O)cc(O)c2c1O[C@H](c1ccc(O)c(O)c1)[C@@H](O)C2 [PC B1, procyanidin B1] | – | – | – | – | –
4,46 ± 0,24 mM | 4,56 ± 0,21 mM | 0,11 mM | 6% | 9% | 6% | 9% | 40 | 60 | 0.9±0.1 10^3 M^-1 | 1100 ± 100 µM | -4.06 ± 0.048 kcal/mol | -1.9 ± 0.096 kcal/mol | 31±1 J/mol·K | 900 M^–1 | Oc1cc(O)c2c(c1)O[C@H](c1ccc(O)c(O)c1)[C@H](O)[C@H]2c1c(O)cc(O)c2c1O[C@H](c1ccc(O)c(O)c1)[C@H](O)C2 [PC B2, procyanidin B2] | – | – | – | – | –
